pEC50, pIC50, pKi: −log10 of the molar value. ≈ marks a conversion by molar mass, not a printed value.
How the values were obtained:
Pseudomonas aeruginosa [1] = experiment: Antimicrobial activity against Pseudomonas aeruginosa MTCC 1688 assessed as bacterial growth inhibition by broth microdilution method; format: functional
Casein kinase 2 = Casein kinase 2 (Homo sapiens, UniProt P67870+P68400+P19784+Q8NEV1); experiment: Inhibition of recombinant human CK2 using RRRDDDSDDD as substrate in presence of [gamma-33P-ATP] incubated for 20 mins by beta-counter analysis; format: protein assay
[2] = Selectivity index, ratio of IC50 for cytotoxicity against PMA differentiated human THP-1 cells to IC50 for antileishmanial activity against luciferase expressing axenic amastigote stage of Leishmania infantum MOM/MA671/TMAP263 infected in PMA differentiated human THP-1 macrophage cells; format: toxicity, cell-based; details: PMA-differentiated THP-1 cells, read-out: Ratio IC50
Leishmania infantum = experiment: Antileishmanial activity against luciferase expressing […] amastigote stage of Leishmania infantum MOM/MA671/TMAP263 infected in PMA differentiated human THP-1 macrophage cells assessed as reduction in parasite growth incubated for 72 hrs by luminescence analysis; format: functional, organism-based; details: MOM/MA671/TMAP263, THP-1, 72 h
[3] = target: Serine/threonine-protein kinase AKT (Homo sapiens, UniProt P31751+Q9Y243+P31749); experiment: Inhibition of AKT (unknown origin) by FRET based Z'-LYTE assay; format: protein assay
[4] = target: T1, Amyloid-beta precursor protein (Homo sapiens, UniProt P05067); experiment: Inhibition of amyloid beta (1 to 42) (unknown origin) self aggregation by ThT-based fluorometric assay
[5] = target: T2, Amine oxidase [flavin-containing] B (Homo sapiens, UniProt P27338); experiment: Inhibition of recombinant human MAO-B
T2 sequence (P27338 whole entry): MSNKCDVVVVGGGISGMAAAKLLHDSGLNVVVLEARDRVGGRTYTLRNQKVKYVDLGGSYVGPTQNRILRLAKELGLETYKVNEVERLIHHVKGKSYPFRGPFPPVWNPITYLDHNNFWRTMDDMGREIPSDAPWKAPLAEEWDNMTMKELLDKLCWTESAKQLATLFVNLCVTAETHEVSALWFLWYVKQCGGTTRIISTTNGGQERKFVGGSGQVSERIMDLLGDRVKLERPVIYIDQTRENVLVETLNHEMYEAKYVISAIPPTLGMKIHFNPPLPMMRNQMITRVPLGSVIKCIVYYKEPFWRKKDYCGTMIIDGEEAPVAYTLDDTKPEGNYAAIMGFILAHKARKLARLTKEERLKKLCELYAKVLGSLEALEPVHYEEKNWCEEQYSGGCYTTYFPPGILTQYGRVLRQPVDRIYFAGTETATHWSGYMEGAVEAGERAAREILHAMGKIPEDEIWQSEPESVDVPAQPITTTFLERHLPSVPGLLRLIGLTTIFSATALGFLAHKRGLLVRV

[6] = target: T1, Amyloid-beta precursor protein; experiment: Inhibition of self-induced amyloid beta (1 to 42) (unknown origin) disaggregation by ThT-based fluorometric assay
Toxoplasma gondii = experiment: Antiparasitic activity against Toxoplasma gondii RH type 1 infected in human HFF cells assessed as inhibition of parasite proliferation incubated for 30 hrs by Hoechst-33342, YFP2 and Alexa-488 dye based high content imaging analysis; format: functional, organism-based; details: RH type 1, HFF
NB-4 = experiment: Cytotoxicity against human NB-4 cells assessed as reduction in cell viability; format: functional, cell-based
SH-SY5Y = experiment: Cytotoxicity against human SH-SY5Y cells assessed as reduction in cell viability; format: functional, cell-based
Aspergillus flavus = experiment: Antifungal activity against Aspergillus flavus assessed as reduction in fungal growth; format: functional
Aspergillus niger = experiment: Antifungal activity against Aspergillus niger assessed as reduction in fungal growth; format: functional
Staphylococcus aureus = experiment: Antimicrobial activity against Staphylococcus aureus assessed as bacterial growth inhibition; format: functional
Pseudomonas aeruginosa [7] = experiment: Antimicrobial activity against Pseudomonas aeruginosa assessed as bacterial growth inhibition; format: functional
Plasmodium falciparum = experiment: Antimalarial activity against chloroquine-resistant erythrocyte stage Plasmodium falciparum assessed as growth inhibition incubated for 72 hrs by SYBR Green I dye based fluorescence analysis; format: functional, organism-based
Plasmodium berghei = experiment: Antimalarial activity against liver stage transgenic Plasmodium berghei (PbGFP-Luccon) infected in human Huh-7 cells assessed as reduction in parasite load incubated for 48 hrs by firefly luciferase assay; format: functional, organism-based; details: Huh-7, 48 h
HEK-293T = experiment: Cytotoxicity against human HEK293T cells assessed as reduction in cell viability incubated for 48 hrs by Alamar Blue assay; format: functional, cell-based
U-251 = experiment: Antiproliferative activity against doxorubicin resistant human U-251 cells assessed as inhibition of cell viability incubated for 48 hrs by sulforhodamine B assay; format: functional, cell-based; details: U-251, 48 h
Histone deacetylase 7 = Histone deacetylase 7 (Homo sapiens, UniProt Q8WUI4); experiment: Inhibition of human HDAC7 in HeLa cells extract incubated for 5 mins followed by substrate addition and measured after 15 mins using Fluor-de-Lys as substrate by spectrofluorometric analysis; format: cell-free
HT-22 [8] = experiment: Neuroprotective activity against glutamate induced-neurotoxicity in mouse HT-22 cells assessed as cell viability preincubated for 4 hrs followed by glutamate stimulation and measured after 12 hrs by MTT assay; format: functional, cell-based
[9] = Inhibition of synthetic AcPHF6 peptide aggregation measured upto 120 mins at 1 min interval by ThT-based fluorometric assay
Histone deacetylase 8 = Histone deacetylase 8 (Homo sapiens, UniProt Q9BY41); experiment: Inhibition of human HDAC8 in HeLa cells extract incubated for 5 mins followed by substrate addition and measured after 15 mins using Fluor-de-Lys as substrate by spectrofluorometric analysis; format: cell-free
HT-22 [10] = experiment: Neuroprotective activity against glutamate induced-neurotoxicity in mouse HT-22 cells assessed as cell viability at 40 uM preincubated for 4 hrs followed by glutamate stimulation and measured after 12 hrs by MTT assay; format: functional; details: time 16 hrs, read-out: Activity
Histone deacetylase 4 = Histone deacetylase 4 (Homo sapiens, UniProt P56524); experiment: Inhibition of human HDAC4 in HeLa cells extract incubated for 5 mins followed by substrate addition and measured after 15 mins using Fluor-de-Lys as substrate by spectrofluorometric analysis; format: cell-free
Histone deacetylase 2 = Histone deacetylase 2 (Homo sapiens, UniProt Q92769); experiment: Inhibition of human HDAC2 in HeLa cells extract incubated for 5 mins followed by substrate addition and measured after 15 mins using Fluor-de-Lys as substrate by spectrofluorometric analysis; format: cell-free
Homo sapiens = species on record: Homo sapiens; experiment: Selectivity index, ratio of IC50 for inhibition of recombinant human MAO-A to IC50 for inhibition of recombinant human MAO-B
[11] = target: T3, Amine oxidase [flavin-containing] A (Homo sapiens, UniProt P21397); experiment: Inhibition of recombinant human MAO-A
T3 sequence (P21397 whole entry): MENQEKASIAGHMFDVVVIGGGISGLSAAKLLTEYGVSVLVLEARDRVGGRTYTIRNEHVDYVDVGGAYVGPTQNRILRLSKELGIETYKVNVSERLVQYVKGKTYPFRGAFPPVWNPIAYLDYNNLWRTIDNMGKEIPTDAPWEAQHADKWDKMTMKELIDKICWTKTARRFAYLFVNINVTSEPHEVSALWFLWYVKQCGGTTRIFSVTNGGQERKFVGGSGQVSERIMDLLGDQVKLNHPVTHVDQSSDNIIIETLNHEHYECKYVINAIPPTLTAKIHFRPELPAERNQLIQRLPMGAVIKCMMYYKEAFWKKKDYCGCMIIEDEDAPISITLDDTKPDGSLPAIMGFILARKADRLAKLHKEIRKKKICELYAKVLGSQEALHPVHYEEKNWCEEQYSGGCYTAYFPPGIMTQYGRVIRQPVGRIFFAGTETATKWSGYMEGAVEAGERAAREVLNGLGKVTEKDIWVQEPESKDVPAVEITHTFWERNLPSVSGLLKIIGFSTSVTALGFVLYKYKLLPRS

[12] = Inhibition of equine serum BuChE using butyrylthiocholine iodide as substrate preincubated for 5 mins followed by substrate addition by spectrophotometric Ellman's method
Acetylcholinesterase = Acetylcholinesterase (Electrophorus electricus, UniProt O42275); experiment: Inhibition of electric eel AChE using acetylthiocholine iodide as substrate preincubated for 5 mins followed by substrate addition by spectrophotometric Ellman's method
[13] = Selectivity index, ratio of IC50 for inhibition of electric eel AChE to IC50 for inhibition of equine serum BuChE

T1 sequence (P05067 whole entry): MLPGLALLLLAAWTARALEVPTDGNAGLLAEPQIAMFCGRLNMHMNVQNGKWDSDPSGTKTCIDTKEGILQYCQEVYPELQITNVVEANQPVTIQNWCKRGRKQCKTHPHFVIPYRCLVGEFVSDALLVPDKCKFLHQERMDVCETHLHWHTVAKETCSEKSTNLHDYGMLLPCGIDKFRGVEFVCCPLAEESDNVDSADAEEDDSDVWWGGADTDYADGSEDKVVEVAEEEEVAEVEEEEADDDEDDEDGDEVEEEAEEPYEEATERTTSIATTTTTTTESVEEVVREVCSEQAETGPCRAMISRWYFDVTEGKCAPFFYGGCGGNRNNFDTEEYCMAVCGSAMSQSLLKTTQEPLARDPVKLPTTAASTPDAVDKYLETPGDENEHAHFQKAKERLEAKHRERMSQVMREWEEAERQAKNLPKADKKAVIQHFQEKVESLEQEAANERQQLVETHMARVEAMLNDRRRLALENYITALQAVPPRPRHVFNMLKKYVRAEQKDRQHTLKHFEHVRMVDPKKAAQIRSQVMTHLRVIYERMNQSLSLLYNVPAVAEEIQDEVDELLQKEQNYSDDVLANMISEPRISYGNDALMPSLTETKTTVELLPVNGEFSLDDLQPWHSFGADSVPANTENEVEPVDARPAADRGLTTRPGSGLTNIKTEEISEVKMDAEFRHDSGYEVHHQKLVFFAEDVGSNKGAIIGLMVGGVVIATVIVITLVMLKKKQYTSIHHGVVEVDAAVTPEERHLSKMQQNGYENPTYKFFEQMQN
Chain of Histone deacetylase 7 (Q8WUI4 whole entry): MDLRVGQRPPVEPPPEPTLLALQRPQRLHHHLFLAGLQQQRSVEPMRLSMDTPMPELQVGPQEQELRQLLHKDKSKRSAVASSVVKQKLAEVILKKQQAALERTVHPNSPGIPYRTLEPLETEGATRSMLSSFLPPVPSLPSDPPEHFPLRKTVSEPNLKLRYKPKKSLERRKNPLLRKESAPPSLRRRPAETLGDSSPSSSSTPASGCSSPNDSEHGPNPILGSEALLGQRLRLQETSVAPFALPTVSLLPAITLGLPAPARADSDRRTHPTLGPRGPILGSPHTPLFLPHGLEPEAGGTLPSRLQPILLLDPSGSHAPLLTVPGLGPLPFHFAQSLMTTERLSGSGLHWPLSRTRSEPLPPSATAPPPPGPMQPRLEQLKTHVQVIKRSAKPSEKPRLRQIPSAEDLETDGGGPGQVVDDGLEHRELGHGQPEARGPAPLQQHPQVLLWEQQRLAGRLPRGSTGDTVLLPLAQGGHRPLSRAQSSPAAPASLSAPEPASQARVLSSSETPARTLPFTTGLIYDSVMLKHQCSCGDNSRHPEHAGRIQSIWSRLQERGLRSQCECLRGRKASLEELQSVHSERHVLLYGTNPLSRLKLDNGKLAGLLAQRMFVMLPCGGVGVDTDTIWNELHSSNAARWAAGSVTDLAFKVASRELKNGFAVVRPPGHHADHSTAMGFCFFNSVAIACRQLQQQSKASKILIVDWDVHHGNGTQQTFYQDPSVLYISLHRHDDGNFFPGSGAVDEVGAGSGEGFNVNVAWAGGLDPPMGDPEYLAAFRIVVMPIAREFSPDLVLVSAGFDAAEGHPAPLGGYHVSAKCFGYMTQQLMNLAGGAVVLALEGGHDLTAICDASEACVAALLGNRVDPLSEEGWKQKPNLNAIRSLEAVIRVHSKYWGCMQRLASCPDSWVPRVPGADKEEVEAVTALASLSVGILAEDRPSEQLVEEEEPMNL
Chain of Histone deacetylase 8 (Q9BY41 whole entry): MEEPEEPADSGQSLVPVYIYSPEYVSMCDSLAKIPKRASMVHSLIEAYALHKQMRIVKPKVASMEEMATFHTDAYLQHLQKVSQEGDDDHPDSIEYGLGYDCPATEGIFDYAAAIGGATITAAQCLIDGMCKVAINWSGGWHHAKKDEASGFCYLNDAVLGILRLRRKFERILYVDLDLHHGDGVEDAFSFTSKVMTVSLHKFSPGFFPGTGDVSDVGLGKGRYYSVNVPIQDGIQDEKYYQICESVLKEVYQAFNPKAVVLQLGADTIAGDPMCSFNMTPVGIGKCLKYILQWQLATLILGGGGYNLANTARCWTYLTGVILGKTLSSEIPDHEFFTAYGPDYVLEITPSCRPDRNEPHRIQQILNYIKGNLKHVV
Chain of Histone deacetylase 4 (P56524 whole entry): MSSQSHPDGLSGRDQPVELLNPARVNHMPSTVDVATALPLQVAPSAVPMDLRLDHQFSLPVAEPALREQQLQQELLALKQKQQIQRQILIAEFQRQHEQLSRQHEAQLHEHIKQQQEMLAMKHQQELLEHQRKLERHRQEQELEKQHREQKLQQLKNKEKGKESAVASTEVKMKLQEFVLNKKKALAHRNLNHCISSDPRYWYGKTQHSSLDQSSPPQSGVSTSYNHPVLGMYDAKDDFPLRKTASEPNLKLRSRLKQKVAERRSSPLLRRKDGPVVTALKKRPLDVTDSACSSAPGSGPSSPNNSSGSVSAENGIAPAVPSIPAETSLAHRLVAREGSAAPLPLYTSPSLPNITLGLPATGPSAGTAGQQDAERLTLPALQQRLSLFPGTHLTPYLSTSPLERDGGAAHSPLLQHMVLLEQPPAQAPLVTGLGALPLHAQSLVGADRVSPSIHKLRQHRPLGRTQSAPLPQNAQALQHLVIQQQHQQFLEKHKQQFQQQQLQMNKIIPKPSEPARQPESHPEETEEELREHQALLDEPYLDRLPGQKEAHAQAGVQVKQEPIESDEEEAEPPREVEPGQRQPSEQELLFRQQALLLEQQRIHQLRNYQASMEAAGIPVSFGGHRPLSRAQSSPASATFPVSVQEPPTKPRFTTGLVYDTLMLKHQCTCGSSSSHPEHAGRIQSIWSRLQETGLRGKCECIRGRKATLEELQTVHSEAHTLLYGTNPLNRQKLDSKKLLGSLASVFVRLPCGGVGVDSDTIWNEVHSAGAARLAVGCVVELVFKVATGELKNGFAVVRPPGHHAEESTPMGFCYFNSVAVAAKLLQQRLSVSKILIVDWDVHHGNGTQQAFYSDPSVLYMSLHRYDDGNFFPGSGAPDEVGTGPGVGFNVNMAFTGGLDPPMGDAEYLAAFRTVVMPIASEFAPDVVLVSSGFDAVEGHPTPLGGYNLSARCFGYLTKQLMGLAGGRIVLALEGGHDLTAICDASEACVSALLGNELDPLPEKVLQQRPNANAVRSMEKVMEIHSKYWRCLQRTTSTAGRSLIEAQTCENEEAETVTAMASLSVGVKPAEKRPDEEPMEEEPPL
Chain of Acetylcholinesterase (O42275 whole entry): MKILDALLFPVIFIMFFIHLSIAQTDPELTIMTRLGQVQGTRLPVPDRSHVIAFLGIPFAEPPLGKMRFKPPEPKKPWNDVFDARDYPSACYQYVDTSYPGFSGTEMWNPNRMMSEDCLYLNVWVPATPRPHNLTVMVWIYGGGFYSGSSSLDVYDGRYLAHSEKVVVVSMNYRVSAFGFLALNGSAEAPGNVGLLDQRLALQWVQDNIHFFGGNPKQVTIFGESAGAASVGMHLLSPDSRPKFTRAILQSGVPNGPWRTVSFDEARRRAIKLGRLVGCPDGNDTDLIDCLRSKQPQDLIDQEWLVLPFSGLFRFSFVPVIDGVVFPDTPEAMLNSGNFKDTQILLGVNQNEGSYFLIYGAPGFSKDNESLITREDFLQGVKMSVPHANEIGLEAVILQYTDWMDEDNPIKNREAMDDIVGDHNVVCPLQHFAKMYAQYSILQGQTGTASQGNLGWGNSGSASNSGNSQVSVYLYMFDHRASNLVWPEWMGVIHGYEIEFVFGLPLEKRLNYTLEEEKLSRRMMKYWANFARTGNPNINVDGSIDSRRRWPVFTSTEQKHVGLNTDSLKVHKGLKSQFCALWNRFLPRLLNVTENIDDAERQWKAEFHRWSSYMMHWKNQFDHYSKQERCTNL
Chain of Histone deacetylase 2 (Q92769 whole entry): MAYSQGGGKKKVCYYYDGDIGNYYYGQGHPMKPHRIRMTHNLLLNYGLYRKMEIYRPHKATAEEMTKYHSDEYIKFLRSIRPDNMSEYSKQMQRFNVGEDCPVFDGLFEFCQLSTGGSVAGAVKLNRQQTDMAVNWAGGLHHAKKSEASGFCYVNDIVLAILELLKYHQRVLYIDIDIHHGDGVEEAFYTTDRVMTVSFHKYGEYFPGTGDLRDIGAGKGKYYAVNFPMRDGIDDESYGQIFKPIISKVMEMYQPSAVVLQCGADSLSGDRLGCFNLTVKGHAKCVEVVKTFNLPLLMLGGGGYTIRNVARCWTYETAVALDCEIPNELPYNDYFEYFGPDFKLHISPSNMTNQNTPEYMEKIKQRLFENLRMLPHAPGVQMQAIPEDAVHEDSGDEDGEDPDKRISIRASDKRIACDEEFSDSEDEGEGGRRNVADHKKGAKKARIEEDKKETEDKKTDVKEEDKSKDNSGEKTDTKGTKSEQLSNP

In the case of `C=CCn1c(=O)c(/C=C2\Oc3cc(O)cc(O)c3C2=O)cc2cc(C)ccc21`, the MIC (Pseudomonas aeruginosa [1]) was 33 µM (≈ 12.4 µg/mL).

`O=C1/C(=C/c2ccc(O)c(Br)c2)Oc2c(Br)cccc21` gave an IC50 (Casein kinase 2) of 0.0033 µM.

Molecule `COc1cc(OC)c2c(c1)O/C(=C\c1ccccc1OC)C2=O` has a selectivity ratio [2] of 57.5 and a pEC50 (Leishmania infantum) of 5.89.

Work on `Cc1ccc2c(c1C)C(=O)/C(=C/c1ccccc1)C2` yielded an IC50 [3] of 0.066 µM.

In the case of `COc1cc2c(cc1OC)C(=O)/C(=C/c1ccc([N+](=O)[O-])cc1)C2`, the pIC50 [4] was 5.74, the pIC50 [5] was 7.52 and the pIC50 [6] was 5.10.

In the case of `O=C1/C(=C/c2cn(CC3CCCCC3)c3ccccc23)Oc2cc(O)cc(O)c21`, the pIC50 (Toxoplasma gondii) was 5.00.

`COc1ccc(/C=C2\Oc3c(ccc4c3C(=O)CC(C)(C)O4)C2=O)cc1` showed a pIC50 (NB-4) of 5.32 and a pIC50 (SH-SY5Y) of 5.47.

Work on `Cc1ccc2c(c1)C(=O)/C(=C/c1coc3ccc(C)cc3c1=O)O2` yielded an MIC (Aspergillus flavus) of 14 µM (≈ 4.46 µg/mL), an MIC (Aspergillus niger) of 14 µM (≈ 4.46 µg/mL) and an MIC (Staphylococcus aureus) of 1.6 µM (≈ 0.509 µg/mL). The MIC (Pseudomonas aeruginosa [7]) was 1.6 µM (≈ 0.509 µg/mL).

With `O=C1/C(=C/c2cccc(-c3ccc(C(F)(F)F)cc3)c2)Nc2ccccc21` the pEC50 (Plasmodium falciparum) was 6.96, the pEC50 (Plasmodium berghei) was under 4.00 and the pEC50 (HEK-293T) was 6.09.

`O=C1/C(=C(\O)c2ccc3ccccc3c2)Cc2ccccc21` gave a pIC50 (U-251) of 5.60.

`O=C1/C(=C/c2ccc(O)c(O)c2)Oc2cc(O)cc(O)c21` [AUREUSIDIN] gave a pKi (Histone deacetylase 7) of 5.78, a pEC50 (HT-22 [8]) of 4.92 and an inhibition [9] of 62%. The pKi (Histone deacetylase 8) was 5.78, the viability at 40 µM (HT-22 [10]) was 97% and the pKi (Histone deacetylase 4) was 6.10. It also gave a pKi (Histone deacetylase 2) of 5.78.

For `COc1cc2c(cc1OC)C(=O)/C(=C/c1ccc(N(C)C)cc1)C2`, the pIC50 [5] was 4.24, the Ratio IC50 (Homo sapiens) was over 2500 and the pIC50 [11] was 7.70.

Molecule `COc1ccc(NC(=O)Oc2cccc(/C=C3\Cc4cc(OC)c(OC)cc4C3=O)c2)cc1` has a pIC50 [12] of 6.51, a pIC50 (Acetylcholinesterase) of 4.68 and a Ratio IC50 [13] of 70.

Source: ChEMBL document CHEMBL5236572, “Bioactive Aurones, Indanones, and Other Hemiindigoid Scaffolds: Medicinal Chemistry and Photopharmacology Perspectives” (J Med Chem, 2022)
